Experimental data reported in patent publication US20070015663A1, “Growth regulator and process for growth regulation of plant” (SUPER BLAST SYSTEMS CO., LTD., priority 2001, published 2007).
Read-outs that look alike come from different tables or passages of the source.

Legend:
lettuce [1] = system: lettuce
Experimental: For control 1, absorbent cotton was spread on a 4.5 cm dish, and thereto was added 10 ml of water. Seeds (10 seeds) were added thereto, grown at 23° C. for 4 days in the dark, and thereafter cultured at 23° C. for 3 days in the light (about 3000 lux).

Veronica persica Poir = assay: Germination and seedling growth of Veronica persica Poir with test solution; assay type: in vivo
Experimental: (§1) Absorbent cotton was spread on a 4.5 cm dish, and thereto was added 10 ml of a test solution. Seeds (10 seeds) were added thereto, grown at 23° C. for 4 days in the dark, and thereafter cultured at 23° C. for 3 days in the light (about 3000 lux).
FIG. 10 is a drawing illustrating the state of seeds within each of the dishes similarly to FIG. 1, and each control is shown. […] In addition, the lengths of each embryonic axis shoots and root are indicated.
(§2) Indole-3-acetate (IAA) was used as the auxin.

radish = system: radish
Experimental: as §1

lettuce [2] = system: lettuce; remark: listed apart in the source
Experimental: as §1

rice = details: 23° C. 4 days dark + 3 days light
Experimental: as §1
FIG. 1 is a drawing illustrating the state of seeds within each of the dishes. FIG. 2 is a drawing comparing the length of each shoot and the length of each root. […] For reference, the length of the label is 5 mm.

perennial ryegrass = system: perennial ryegrass
Experimental: as §1
FIG. 7 is a drawing illustrating the state of seeds within each of the dishes similarly to FIG. 1. FIG. 8 is a drawing comparing the length of each shoot and that of each root similarly to FIG. 2.

tomato = assay: Germination and seedling growth of tomato on absorbent cotton with test solution; assay type: in vivo, tomato (Lycopersicon esculentum)
Experimental: as §1
FIG. 3 is a drawing illustrating the state of germination within each of the dishes similarly to FIG. 1. FIG. 4 is a drawing comparing the length of each embryonic axis (shoot) and that of each root similarly to FIG. 2.
FIG. 11 is a drawing illustrating the state of seeds within each of the dishes similarly to FIG. 1, and each control is shown. […] In addition, the lengths of each shoot and root are presented.
as §2

[3] = volcanic ash+0.1% NaHCO3 (100 g and 0.1% NaHCO3 solution 28 g)
[4] = volcanic ash+1% NaHCO3 (100 g and 1% NaHCO3 solution 28 g)
[5] = volcanic ash+10% NaHCO3 (100 g and saturated sodium bicarbonate solution 28 g)

O=C([O-])O.[Na+] [NaHCO3, sodium bicarbonate]
development of the root (lettuce [1]; [3]): 21.0±0.8 mm
development of the shoot (lettuce [1]; [3]): 33.4±1.1 mm
length of the root (lettuce [1]; [4]): 5.4±1.1 mm
length of the shoot (lettuce [1]; [4]): 26.0±1.5 mm
development of the root (lettuce [1]; [5]): 0 mm
development of the shoot (lettuce [1]; [5]): 0 mm
length of the root (Veronica persica Poir; in vivo): 9 mm
length of the shoot (Veronica persica Poir; in vivo): 8 mm
length of the embryonic axis (shoot) (radish; NaHCO3 0.003%): 66.3±4.1 mm
length of the root (radish; NaHCO3 0.003%): 37.0±1.5 mm
length of the embryonic axis (shoot) (radish; NaHCO3 0.01%): 74.0±1.5 mm
length of the root (radish; NaHCO3 0.01%): 71.3±1.9 mm
length of the embryonic axis (shoot) (radish; NaHCO3 0.03%): 60.0±3.1 mm
length of the root (radish; NaHCO3 0.03%): 80.7±5.9 mm
length of the embryonic axis (shoot) (radish; NaHCO3 0.1%): 66.7±3.4 mm
length of the root (radish; NaHCO3 0.1%): 22.0±1.5 mm
length of the embryonic axis (shoot) (radish; NaHCO3 0.3%): 19.3±0.7 mm
length of the root (radish; NaHCO3 0.3%): 7.3±1.3 mm
length of the embryonic axis (shoot) (radish; NaHCO3 1%): 0±0 mm
length of the root (radish; NaHCO3 1%): 0±0 mm
length of the root (lettuce [2]; NaHCO3 0.003%): 18.7±4.7 mm
length of the shoot (lettuce [2]; NaHCO3 0.003%): 14.0±0.6 mm
length of the root (lettuce [2]; NaHCO3 0.01%): 21.0±0.6 mm
length of the shoot (lettuce [2]; NaHCO3 0.01%): 24.3±0.9 mm
length of the root (lettuce [2]; NaHCO3 0.03%): 14.3±1.9 mm
length of the shoot (lettuce [2]; NaHCO3 0.03%): 24.3±0.3 mm
length of the root (lettuce [2]; NaHCO3 0.1%): 11.0±0.6 mm
length of the shoot (lettuce [2]; NaHCO3 0.1%): 15.7±0.3 mm
length of the root (lettuce [2]; NaHCO3 0.3%): 3.7±0.3 mm
length of the shoot (lettuce [2]; NaHCO3 0.3%): 6.7±0.3 mm
length of the root (lettuce [2]; NaHCO3 1%): 0±0 mm
length of the shoot (lettuce [2]; NaHCO3 1%): 0±0 mm
length of the root (rice; NaHCO3 0.003%): 32.0±9.3 mm
length of the shoot (rice; NaHCO3 0.003%): 11.0±1.0 mm
length of the root (rice; NaHCO3 0.01%): 18.0±9.7 mm
length of the shoot (rice; NaHCO3 0.01%): 10.0±0 mm
length of the root (rice; NaHCO3 0.03%): 23.7±0.9 mm
length of the shoot (rice; NaHCO3 0.03%): 15.0±1.0 mm
length of the root (rice; NaHCO3 0.1%): 20.7±2.3 mm
length of the shoot (rice; NaHCO3 0.1%): 13.3±0.9 mm
length of the root (rice; NaHCO3 0.3%): 2.3±0.3 mm
length of the shoot (rice; NaHCO3 0.3%): 7.3±1.5 mm
length of the root (rice; NaHCO3 1%): 0±0 mm
length of the shoot (rice; NaHCO3 1%): 3.3±0.3 mm
length of the root (perennial ryegrass; NaHCO3 0.003%): 25.3±0.9 mm
length of the shoot (perennial ryegrass; NaHCO3 0.003%): 24.7±0.3 mm
length of the root (perennial ryegrass; NaHCO3 0.01%): 27.3±1.5 mm
length of the shoot (perennial ryegrass; NaHCO3 0.01%): 42.0±0.6 mm
length of the root (perennial ryegrass; NaHCO3 0.03%): 26.0±0.6 mm
length of the shoot (perennial ryegrass; NaHCO3 0.03%): 44.3±1.5 mm
length of the root (perennial ryegrass; NaHCO3 0.1%): 28.0±1.5 mm
length of the shoot (perennial ryegrass; NaHCO3 0.1%): 55.7±0.7 mm
length of the root (perennial ryegrass; NaHCO3 0.3%): 4.7±0.3 mm
length of the shoot (perennial ryegrass; NaHCO3 0.3%): 19.0±0.6 mm
length of the root (perennial ryegrass; NaHCO3 1%): 0±0 mm
length of the shoot (perennial ryegrass; NaHCO3 1%): 0±0 mm
germination (tomato; in vivo): germination does not occur
length of the shoot (tomato; in vivo): 5 mm

O=C(O)Cc1c[nH]c2ccccc12 [IAA, indole-3-acetate]
length of the root (Veronica persica Poir; Example 9, IAA 10^−4 M alone): 11 mm
length of the shoot (Veronica persica Poir; Example 9, IAA 10^−4 M alone): 8 mm
length of the root (Veronica persica Poir; Example 9, IAA 10^−5 M alone): 22 mm
length of the shoot (Veronica persica Poir; Example 9, IAA 10^−5 M alone): 13 mm
length of the root (tomato; Example 8, IAA 10^−4 M alone): 30 mm
length of the shoot (tomato; Example 8, IAA 10^−4 M alone): 20 mm
length of the root (tomato; Example 8, IAA 10^−5 M alone): 41 mm
length of the shoot (tomato; Example 8, IAA 10^−5 M alone): 23 mm
